Starred links: 1 amine or outer side, 2 acyl side, 3 side chain; linkers in the order of their positions; H or OH if unused. Non-standard residues stand in square brackets, D forms with d. No end group written: not given here. *: point of attachment. X1 = CC(C)C(C)[C@H](N[*:1])C(=O)[*:2]; Ile(3-Me) = CCC(C)(C)[C@H](N)C(=O)O; d(aThr) = C[C@@H](O)[C@@H](N)C(=O)O; Butanoyl(2-oxo) = CCC(=O)C(=O)*; Tle = CC(C)(C)[C@H](N)C(=O)O
Legend:
[1] = Cytotoxic assay (MTT) against HeLa cells; format: cell-based; conditions: 3 days incubation, MTT readout
Experimental: The activity of aeronamide A was measured against HeLa cells. Stocked HeLa cells were resuspended in 10 mL HEPES buffered high glucose Dulbecco's Modified Eagle Medium (DMEM) supplemented with GlutaMAX (Gibco). Additionally, the medium contained 10% fetal calf serum (FCS) and […] gentamycin. The cells were centrifuged for 5 min at 1000×g and room temperature. The medium was discarded and the cells resuspended in 10 mL fresh medium. The cells were put in a culture dish and incubated for 3-4 days at 37° C. The cells were checked under the microscope and treated further only when 60-80% of the surface was covered with cells. The medium was removed from the culture flask and the cells were washed with 10 mL phosphate buffered saline (PBS). The PBS was discarded and the cells treated with 2 mL Trypsin-EDTA solution. When the cells were detached, 10 mL of medium was added and centrifuged for 5 min at 1000×g and room temperature. The supernatant was discarded and 10 mL fresh medium were added. 2 mL of the cell suspension were put in a fresh culture flask containing 10 mL medium. Cells healthy enough for cytotoxicity assays were counted and diluted to a 10,000 cells/mL solution. 96 well plates were filled with 200 μL cell suspension per well. All plates were incubated overnight at 37° C. […] Absorbance was measured at 570 nm and IC50 was calculated using GraphPad Prism 6 (GraphPad).

fungi = test: Activity towards fungi
bacteria = test: Activity towards bacteria

Substance: {Butanoyl(2-oxo)}-[Ile(3-Me)][dA][Tle][dV][X1][dV]A[dV][Tle]GA[dA]A[dA]A[dV][Tle][d(aThr)]Y[dL]G[dA]A[dD](NHMe)[Tle][dV]G[dA]A[dD](NHMe)G[d(aThr)][Tle][d(aThr)]A[dD](NHMe)A[dV]A[dD](NHMe)T[dD](NHMe)A[dV]A [Aeronamide A]
- IC50 [1]: 1.48 nM
- cytotoxic activity towards fungi (fungi): not towards the bacteria and fungi
- cytotoxic activity towards bacteria (bacteria): not towards the bacteria and fungi

Reference: patent publication US20220089655A1, “NOVEL POLYPEPTIDE-MODIFYING ENZYMES AND USES THEREOF” (ETH ZURICH, priority 2018, published 2022)
